Measurements published in ChEMBL document CHEMBL2169832, “Conformation-specific effects of Raf kinase inhibitors” (J Med Chem, 2012).

Key:
[1] = target: RAF proto-oncogene serine/threonine-protein kinase (Homo sapiens, UniProt P04049); assay: Inhibition of C-Raf
HCT-116 = assay: cells; conditions: Homo sapiens
A-375 = assay: cells; conditions: Homo sapiens

Chain of RAF proto-oncogene serine/threonine-protein kinase (P04049 whole entry): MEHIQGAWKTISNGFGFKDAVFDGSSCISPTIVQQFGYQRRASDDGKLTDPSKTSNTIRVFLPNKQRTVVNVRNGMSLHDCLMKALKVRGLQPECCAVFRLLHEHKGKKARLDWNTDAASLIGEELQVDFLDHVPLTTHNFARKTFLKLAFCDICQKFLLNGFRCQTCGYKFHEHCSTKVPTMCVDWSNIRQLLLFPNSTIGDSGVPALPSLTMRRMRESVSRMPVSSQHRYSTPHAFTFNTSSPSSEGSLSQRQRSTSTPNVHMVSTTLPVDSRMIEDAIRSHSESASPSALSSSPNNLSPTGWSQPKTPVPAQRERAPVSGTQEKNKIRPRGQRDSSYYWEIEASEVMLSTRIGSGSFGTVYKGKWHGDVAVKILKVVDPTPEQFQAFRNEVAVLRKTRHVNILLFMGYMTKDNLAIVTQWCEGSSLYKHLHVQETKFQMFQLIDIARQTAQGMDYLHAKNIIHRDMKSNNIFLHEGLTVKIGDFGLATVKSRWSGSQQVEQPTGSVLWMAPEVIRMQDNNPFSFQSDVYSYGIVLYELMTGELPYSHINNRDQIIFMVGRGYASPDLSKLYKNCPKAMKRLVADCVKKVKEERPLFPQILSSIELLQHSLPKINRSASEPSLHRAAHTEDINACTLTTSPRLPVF

| IC50 (HCT-116) [nM] | IC50 (A-375) [nM] | Structure (SMILES) | Ki [1] [nM] |
| --- | --- | --- | --- |
| > 20000 | < 500 | OCCn1cc(-c2ccc3c(c2)CC/C3=N\O)c(-c2ccncc2)n1 |  |
| 27000 | 500 | CCCS(=O)(=O)Nc1ccc(F)c(C(=O)c2c[nH]c3ncc(Cl)cc23)c1F [PLX-4720] |  |
| 4600 | 370 | CN(C)CCOc1ccc(-c2nc(-c3ccncc3)c(-c3ccc4c(c3)CC/C4=N\O)[nH]2)cc1 [SB590885] |  |
| 2000 | 2400 | CNC(=O)c1cc(Oc2ccc(NC(=O)Nc3ccc(Cl)c(C(F)(F)F)c3)cc2)ccn1 [SORAFENIB] |  |

| Structure (SMILES) | IC50 (HCT-116) [nM] | IC50 (A-375) [nM] | Ki [1] [nM] |
| --- | --- | --- | --- |
| Cc1ccc2c(Nc3ccc(Cl)cc3)nccc2c1Nc1ncccc1-c1ncnc2[nH]cnc12 | 720 | 310 | 0.3 |
